Values after ≈ are worked out from the molar mass of the structure shown.
Experiments:
[1] = Intrinsic clearance in mouse liver microsomes; assay type: in vitro ADME
Experimental: page 13: 4. Parasite assays T. cruzi4, Leishmania donovani axenic amastigote, cidal axenic amastigote and intra- macrophage drug sensitivity assays were conducted as previously described5,6. a. […] Instead of a single readout at 72 h, multiple identical plates were used and read at different time points (24, 48, 72 h). Rate of kill curves showing the luminescence signal at each time point for each concentration were plotted. 5. […] The rate of intrinsic clearance (CLint) of each test compound was then calculated using the following calculation: CLint(mL/min/g liver) = k x V x Microsomal protein yield Where V (mL/mg protein) is the incubation volume/mg protein added and microsomal protein yield is taken as 52.5 mg protein/g liver. Verapamil (0.5 μM) was used as a positive control to confirm acceptable assay performance. 6. Pharmacokinetic studies. a. Mouse and dog PK Mouse pharmacokinetic studies were conducted in male CD-1 mice and male beagle dogs. 3 animals per group were used for each study performed. A dose of 3 mg/kg was administered intravenously, in a bolus form to mice and infused over a 30 min period to dogs. For all the intravenous studies compound were dissolved in 5% DMSO/20% kleptose in saline. A dose of 10 mg/kg was orally administered by gavage to the two species in a suspension of 1% methylcellulose to investigate oral pharmacokinetics. S13

[2] = system: L. donovani intramacrophage amastigotes; experiment: L. donovani intramacrophage assay (amastigotes in differentiated THP-1 cells); assay type: cell-based, Leishmania donovani; conditions: Leishmania donovani; L. donovani amastigotes in differentiated THP-1 cells; read-out: Intramacrophage EC50
Experimental: T. cruzi4, Leishmania donovani axenic amastigote, cidal axenic amastigote and intra-
macrophage drug sensitivity assays were conducted as previously described5,6. […]
5. Intrinsic clearance (CLint) […]
6. Pharmacokinetic studies. […]

[3] = CAD (charged aerosol detector) solubility
[4] = system: L. donovani promastigotes; experiment: microbe, parasite or virus in culture; assay type: cell-based, Leishmania donovani
Experimental: 9. Mode of action studies a. Cell lines and culture conditions […]
c. Generation of drug-resistant parasites […]
donovani in the continuous presence of this compound. Starting at a sub-lethal […]
After a total of 120 days in
Genomic DNA was harvested from three independently generated L. donovani resistant clones and an age match control, as previously described27. PCR was performed using Platinum PCR Supermix (Invitrogen), as per manufacturer’s […]
generated using primers SubunitB4FW and SubunitB4RV, then sequenced using primer SubunitB4FW (Table S6). To sequence the β5 subunit (LdBPK_361730.1), an […]
sequenced using primer SubunitB5FW. PCR amplification and DNA sequencing were performed in triplicate for each independently generated cell line. The Leishmania donovani BPK282A1 sequences of the two subunits were identified in TriTrypDB and […]
e. Generation of overexpression constructs and LdBOB transgenic cell lines The genes encoding the mutated versions of the β4 (LdBPK_360340.1) and the β5 […]
parasites, were synthesised (GeneArt, Thermo Fischer Scientific). The synthetic genes, flanked by BamHI sites were cloned into the equivalent site of pIR1-SAT. The accuracy of all assembled constructs was verified by sequencing.
Mid-log-phase L. donovani promastigotes (LdBOB) were transfected with overexpression constructs using the Human T-Cell Nucleofector kit and the Amaxa Nucleofector electroporator (program V-033). Following transfection, cells were […]
to appropriate drug selection (100 µg/mL nourseothricin). Cloned cell lines were […]
selection for one passage prior to experiments. […]

[5] = Solubility in fasted simulated intestinal fluid (FaSSIF); conditions: fasted simulated intestinal fluid (FaSSIF), fassif
THP-1 cells = experiment: Mammalian cell growth inhibition (THP-1); assay type: cell-based; conditions: Homo sapiens
Description: We hypothesized that, in view of their structural similarity, 1 and 2 probably shared the same mechanism of action.

[6] = system: L. donovani axenic amastigotes; experiment: Axenic amastigote rate-of-kill assay; assay type: cell-based, Leishmania donovani
Experimental: T. cruzi4, Leishmania donovani axenic amastigote, cidal axenic amastigote and intra-macrophage drug sensitivity assays were conducted as previously described5,6.
The rate of kill of compound 8 was determined in axenic amastigotes using the previously described cidal axenic assay5, with one minor modification. Instead of a single readout at 72 h, multiple identical plates were used and read at different time points (24, 48, 72 h). Rate of kill curves showing the luminescence signal at each time point for each concentration were plotted.
5. Intrinsic clearance (CLint)
Test compound (0.5 µM) was incubated with female CD1 mouse liver microsomes (Xenotech LLC TM; 0.5 mg/mL 50 mM potassium phosphate buffer, pH7.4) and the reaction started with addition of excess NADPH (8 mg/mL 50 mM potassium phosphate buffer, pH7.4). Immediately, at time zero, then at 3, 6, 9, 15 and 30 minutes an aliquot (50 µL) of the incubation mixture was removed and mixed with acetonitrile (100 µL) to stop the reaction. […]
XLfit (idbs, UK) was used to calculate the exponential decay and consequently the rate constant (k) from the ratio of peak area of test compound to internal standard at each time-point. The rate of intrinsic clearance (CLint) of each test compound was then calculated using the following calculation: […]
Amastigote levels (as RLU, relative luminescence units) for each tested concentration plotted against time. […]

[7] = biological target: T1, human purified 26S proteasome (Homo sapiens, UniProt P28074+P49721); experiment: Proteasome activity assay, chymotrypsin-like, purified human 26S; assay type: biochemical
T1 construct: purchased Boston Biochem
Experimental: Proteasome activity assays
Compounds were dispensed into black 384-well assay plates (Greiner) by acoustic dispensing (LabCyte ECHO). For potency determinations, eleven-point, one in three dilution curves were generated, with a top concentration of 100 µM. Three proteasome activities were measured using a commercially available indirect enzyme-based luminescent assay kit (Promega) with Suc-LLVY-aminoluciferin, Z-LRR-aminoluciferin and Z-nLPnLD-aminoluciferin used as substrates for chymotrypsin-like, trypsin-like and caspase-like activities, respectively. In addition to proteasome samples: L. donovani and THP1-enriched proteasomes, commercially available human purified 26S proteasome (Boston Biochem) was also assessed. Proteasome final assay concentration were 0.025 mg/ml for L. donovani and THP1-enriched proteasomes and 1 nM for human purified 26S proteasome. Proteasome solution was added to the plates containing the compounds one hour before adding the proteasome substrate solution.
Substrate solution was then added and after 30 min of incubation luminescent signal was measured in an Envision reader (PerkinElmer).

[8] = Leishmania donovani, RES II-resistant cells
[9] = Leishmania donovani, WT promastigotes

| SMILES | CLint [1] | EC50 [2] | solubility [3] | EC50 [4, 8] | EC50 [4, 9] | EC50 ([4]; Leishmania donovani, WT, overexpression experiment (Fig. 3D)) | EC50 ([4]; Leishmania donovani, β4MUT cells (overexpressing β4 T30A)) | EC50 ([4]; Leishmania donovani, β5MUT cells (overexpressing β5 G197C)) | resistance of compound 7-resistant clones ([4]; resistant clones vs WT) | reduction of susceptibility on overexpression of mutated β5 subunit ([4]; β5 G197C overexpression vs WT) | solubility [5] | EC50 (THP-1 cells) | CLint (intrinsic clearance when incubated with mouse liver microsomes) [1] | minimum concentration inducing parasite cell death ([6]; after 72 h) | time to kill ([6]; as compound concentrations were increased) | EC50 ([4]; WT promastigotes) | IC50 [7] |
| --- | --- | --- | --- | --- | --- | --- | --- | --- | --- | --- | --- | --- | --- | --- | --- | --- | --- |
| O=C(Nc1ccc(F)c(-c2cn3nc(-c4ccccc4)cnc3n2)c1)N1CCCC1 [Compound 7] | 1.7 mL/min/g | 350 nM | 7 µg/mL (≈ 17.4 µM) | > 1000 nM | 3.5 ± 0.09 nM | 9.4 ± 0.14 nM | 11.2 ± 0.2 nM | 37.6 ± 0.6 nM | > 100 fold | fourfold | 1 µg/mL (≈ 2.48 µM) | > 50000 nM | – | – | – | – | – |
| O=C(Nc1ccc(F)c(-c2ccn3c(N4CCOCC4)cnc3n2)c1)N1CCCC1 [Compound 8] | 0.77 mL/min/g | 1600 nM | 231 µg/mL (≈ 563 µM) | > 1000 nM | 14.6 ± 0.3 nM | – | – | – | – | – | 180 µg/mL (≈ 439 µM) | > 50000 nM | 0.8 mL/min per gram | 620 nM | 48 h | 14 nM | 13000 ± 880 nM |
